Among the data in patent EP3383875B1, “3-PYRIMIDINYL PYRROLO [2,3-B] PYRIDINE AS ANTICANCER AGENTS AND THE PROCESS FOR THE PREPARATION THEREOF” (Council Of Scientific & Industrial Research, priority 2015, dated 2017) are inhibition values, retold here.

Assay [1] has as its target CDK-2/cyclin A (Homo sapiens, UniProt P24941). The assay is described as follows: CDK inhibition assay, CDK-2/cyclin A against Histone HI, 33P-ATP. Format: biochemical. Particulars: at 500 nM. The method, boiled down:
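CDK-2/cyclin A (5-20 mU) phosphorylating Histone HI (1 mg/ml) in 50 mM Hepes pH 7.5, 100 mM NaCl, 10 mM Mg acetate, 0.02 mM [33P-γ-ATP], 30 min at room temperature. Stopped with orthophosphoric acid, captured on P81 filters for radiometric readout.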

Assay [2] has as its target CDK-9/Cyclin T1 (Homo sapiens, UniProt P50750). The assay is described as follows: CDK inhibition assay, CDK-9/Cyclin T1 against substrate peptide, 33P-ATP. The following applies: at 500 nM. Format: biochemical. How it is done: (50-1000 cpm/pmole) and incubated for 30 min at room temperature. Assays were stopped by addition of 5 µl of 0.5 M (3%) orthophosphoric acid and then harvested onto P81 Unifilter plates with a wash buffer of 50 mM orthophosphoric acid.

The subject of assay [3] is MCF-7. The experiment in a line: MTT assay on cancer cell line MCF-7. The class given is cell-based, Human. Particulars: Homo sapiens. How it is done:
(§1) Cell culture, growth conditions and treatments. […] Different molecules were dissolved in DMSO and were delivered to cell cultures in complete medium.

Assay [4] deals with PC-3. The experiment in a line: MTT assay on cancer cell line PC-3. The class given is cell-based, human. Particulars: Homo sapiens. How it is done: as §1
A general note: Tetrazolium assays rely on reduction of a dye to a coloured formazan, in cell work by metabolically active cells.

The subject of assay [5] is MDA-MB435. The experiment in a line: MTT assay on cancer cell line MDA-MB435. The class given is cell-based, Human. The following applies: Homo sapiens, MDA-MB-435. How it is done: as §1
Assay [6] deals with HCT-116. The assay is described as follows: MTT assay on cancer cell line HCT-116. The class given is cell-based, human. The following applies: Homo sapiens. How it is done: as §1
Assay [7] has as its system SHSY-5Y. The experiment in a line: MTT assay on cancer cell line SHSY-5Y. The following applies: Homo sapiens, SH-SY5Y. Format: cell-based, human. How it is done:
as §1

Setting [8] is: Table-6, read-out: In vitro CDK2 % of inhibition.
Setting [9] is: read-out: inhibition against CDK2.
Where [10] appears, read: Table-6, read-out: In vitro CDK9 % of inhibition.
Setting [11] is: read-out: inhibition against CDK9.
The mark [12] stands for this setting: MCF7, MCF-7, Table 8, read-out: In vitro cell inhibition, % of inhibition, MCF-7.
The mark [13] stands for this setting: MCF7, read-out: inhibition against MCF-7 cell lines.
The mark [14] stands for this setting: Table 8, read-out: In vitro cell inhibition, % of inhibition, PC-3.
The mark [15] stands for this setting: MDA-MB435, at 10µM, Table 8, read-out: In vitro cell inhibition, % of inhibition, MDA-MB435.
Where [16] appears, read: at 10 µM, read-out: inhibition against MDAMB-435 cell lines.
Where [17] appears, read: at 10µM, Table 8, read-out: In vitro cell inhibition, % of inhibition, HCT-116.
The mark [18] stands for this setting: at 10 µM, read-out: inhibition against HCT-116 cell lines.
Where [19] appears, read: SHSY-5Y, Table 8, read-out: In vitro cell inhibition, % of inhibition, SHSY-5Y.
Where [20] appears, read: read-out: inhibition against SHSY-5Y cell lines.
Setting [21] is: read-out: inhibition against PC-3 cell lines.
The mark [22] stands for this setting: Table-7, read-out: In vitro CDK2 % of inhibition.
Where [23] appears, read: Table-7, read-out: In vitro CDK9 % of inhibition.
Setting [24] is: MCF7, MCF-7, Table 9 (for reference), read-out: In vitro cell inhibition, % of inhibition, MCF-7.
Where [25] appears, read: Table 9 (for reference), read-out: In vitro cell inhibition, % of inhibition, PC-3.
Setting [26] is: MDA-MB435, at 10µM, Table 9 (for reference), read-out: In vitro cell inhibition, % of inhibition, MDA-MB435.
[27] abbreviates: at 10µM, Table 9 (for reference), read-out: In vitro cell inhibition, % of inhibition, HCT-116.
Where [28] appears, read: SHSY-5Y, Table 9 (for reference), read-out: In vitro cell inhibition, % of inhibition, SHSY-5Y.

Where two headings read alike, the source gives them in different places. Bounds are passed on as bounds.

Chain of CDK-9/Cyclin T1 (P50750 whole entry): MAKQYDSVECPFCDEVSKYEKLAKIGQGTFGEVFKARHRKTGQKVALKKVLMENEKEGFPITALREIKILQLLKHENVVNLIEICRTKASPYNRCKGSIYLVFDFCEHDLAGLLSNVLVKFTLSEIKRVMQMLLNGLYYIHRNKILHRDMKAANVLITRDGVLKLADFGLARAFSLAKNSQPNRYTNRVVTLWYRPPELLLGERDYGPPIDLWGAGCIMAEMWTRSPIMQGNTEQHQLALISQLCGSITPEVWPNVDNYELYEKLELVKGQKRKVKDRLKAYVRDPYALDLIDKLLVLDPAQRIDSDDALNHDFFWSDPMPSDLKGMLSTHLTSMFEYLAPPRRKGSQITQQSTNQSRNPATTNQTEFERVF
Chain of CDK-9/Cyclin T1 (O60563 whole entry partner): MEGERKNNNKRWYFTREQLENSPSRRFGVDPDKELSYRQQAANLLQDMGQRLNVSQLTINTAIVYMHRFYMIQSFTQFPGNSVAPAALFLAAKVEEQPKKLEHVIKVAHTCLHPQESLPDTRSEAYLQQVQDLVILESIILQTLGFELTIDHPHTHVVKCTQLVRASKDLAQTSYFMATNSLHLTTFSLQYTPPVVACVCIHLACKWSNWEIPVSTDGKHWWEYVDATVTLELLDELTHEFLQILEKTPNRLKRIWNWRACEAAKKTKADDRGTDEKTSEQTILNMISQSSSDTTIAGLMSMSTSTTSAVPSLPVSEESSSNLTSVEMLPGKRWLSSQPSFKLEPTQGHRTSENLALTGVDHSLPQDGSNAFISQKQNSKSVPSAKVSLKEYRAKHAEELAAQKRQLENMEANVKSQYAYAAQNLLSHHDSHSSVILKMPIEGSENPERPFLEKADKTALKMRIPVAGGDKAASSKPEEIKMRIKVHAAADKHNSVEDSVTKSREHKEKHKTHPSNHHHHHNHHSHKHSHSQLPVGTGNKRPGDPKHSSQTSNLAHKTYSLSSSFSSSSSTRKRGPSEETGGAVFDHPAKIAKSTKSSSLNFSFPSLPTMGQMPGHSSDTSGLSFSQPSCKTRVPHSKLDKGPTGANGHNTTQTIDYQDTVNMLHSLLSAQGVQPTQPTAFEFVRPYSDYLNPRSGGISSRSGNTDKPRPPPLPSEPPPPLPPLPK

As a reminder, the inhibition is the change of the read-out against control, counted positive when it falls. Take `c1ccc2c(-c3cnc4[nH]cc(-c5ccnc(NC6CC6)n5)c4c3)cccc2c1` [1A14, N-cyclopropyl-4-(5-(naphthalen-1-yl)-1H-pyrrolo[2,3-b]pyridin-3-yl)pyrimidin-2-amine]: the inhibition at 0.5 µM in assay [1] (setting [8]), in assay [1] (setting [9]), in assay [2] (setting [10]) and in assay [2] (setting [11]) was > 50% in each case. Also, the inhibition at 10 µM in assay [3] (setting [12]), in assay [3] (setting [13]), in assay [4] (setting [14]), in assay [5] (setting [15]), in assay [5] (setting [16]) and in assay [6] (setting [17]) was > 70% throughout. The inhibition at 10 µM in assay [6] (setting [18]), in assay [7] (setting [19]) and in assay [7] (setting [20]) was > 70% each time.
Consider `c1cc(-c2c[nH]c3ncc(-c4ccoc4)cc23)nc(NC2CC2)n1` [1A16, N-cyclopropyl-4-(5-(furan-3-yl)-1H-pyrrolo[2,3-b]pyridin-3-yl)pyrimidin-2-amine], for which the inhibition at 0.5 µM in assay [1] (setting [8]), in assay [1] (setting [9]), in assay [2] (setting [10]) and in assay [2] (setting [11]) was > 70% in each case. Moreover, the inhibition at 10 µM in assay [3] (setting [12]) was > 50%; in assay [3] (setting [13]), > 50%; in assay [4] (setting [14]) it was > 70%; in assay [5] (setting [15]) it was > 70%; in assay [6] (setting [17]) it was > 70%; in assay [7] (setting [19]), > 50%.
As to `Fc1ccc(-c2cnc3[nH]cc(-c4ccnc(NC5CCCCCC5)n4)c3c2)cc1` [1A42, N-cycloheptyl-4-(5-(4-fluorophenyl)-1H-pyrrolo[2,3-b]pyridin-3-yl)pyrimidin-2-amine], the inhibition at 0.5 µM in assay [1] (setting [8]), in assay [1] (setting [9]), in assay [2] (setting [10]) and in assay [2] (setting [11]) was > 50% each time. Also, the inhibition at 10 µM in assay [3] (setting [12]) was < 50%; in assay [3] (setting [13]), < 50%; in assay [4] (setting [14]), > 50%; in assay [4] (setting [21]) it was > 50%; in assay [5] (setting [15]), > 70%; in assay [6] (setting [17]), > 50%. Moreover, the inhibition at 10 µM in assay [7] (setting [19]) and in assay [7] (setting [20]) was > 70% each time.
In the case of `Cc1cccc(-c2cnc3[nH]cc(-c4ccnc(N)n4)c3c2)c1` [1C7, 4-(5-(m-tolyl)-1H-pyrrolo[2,3-b]pyridin-3-yl)pyrimidin-2-amine], the inhibition at 0.5 µM in assay [1] (setting [22]), in assay [1] (setting [9]), in assay [2] (setting [23]) and in assay [2] (setting [11]) was > 70% each time. The inhibition at 10 µM in assay [3] (setting [24]) is > 50%; in assay [3] (setting [13]), > 50%; in assay [4] (setting [25]) it was > 50%; in assay [5] (setting [26]) it was > 70%; in assay [6] (setting [27]) it was > 70%; in assay [7] (setting [28]) it was > 70%. The inhibition at 10 µM in assay [7] (setting [20]) was > 70%.
With `Fc1cccc(-c2cnc3[nH]cc(-c4ccnc(NCCc5ccccc5)n4)c3c2)c1` [1B5, 4-(5-(3-fluorophenyl)-1H-pyrrolo[2,3-b]pyridin-3-yl)-N-phenethylpyrimidin-2-amine], the inhibition at 0.5 µM in assay [1] (setting [22]) and in assay [2] (setting [23]) was > 50% throughout. Besides, the inhibition at 10 µM in assay [3] (setting [12]), in assay [3] (setting [13]), in assay [4] (setting [14]), in assay [4] (setting [21]), in assay [5] (setting [15]) and in assay [6] (setting [17]) was > 50% each time. In addition, the inhibition at 10 µM in assay [7] (setting [19]) and in assay [7] (setting [20]) was > 70% throughout.
For `COc1ccc(-c2cnc3[nH]cc(-c4ccnc(NC5CC5)n4)c3c2)cc1` [1A11, N-cyclopropyl-4-(5-(4-methoxyphenyl)-1H-pyrrolo[2,3-b]pyridin-3-yl)pyrimidin-2-amine], the inhibition at 0.5 µM in assay [1] (setting [8]), in assay [1] (setting [9]), in assay [2] (setting [10]) and in assay [2] (setting [11]) was > 70% each time. Moreover, the inhibition at 10 µM in assay [3] (setting [12]) was > 70%; in assay [3] (setting [13]), > 70%; in assay [4] (setting [14]), > 50%; in assay [4] (setting [21]) it was > 50%; in assay [5] (setting [15]), > 70%; in assay [5] (setting [16]) it was > 70%. The inhibition at 10 µM in assay [6] (setting [17]), in assay [6] (setting [18]), in assay [7] (setting [19]) and in assay [7] (setting [20]) was > 70% in each case.
For `COc1ccc(-c2cnc3[nH]cc(-c4ccnc(NCCc5ccccc5)n4)c3c2)cc1` [1B11, 4-(5-(4-methoxyphenyl)-1H-pyrrolo[2,3-b]pyridin-3-yl)-N-phenethylpyrimidin-2-amine], the inhibition at 0.5 µM in assay [1] (setting [22]), in assay [1] (setting [9]), in assay [2] (setting [23]) and in assay [2] (setting [11]) was > 50% each time. Further, the inhibition at 10 µM in assay [3] (setting [12]) is > 50%; in assay [3] (setting [13]), > 50%; in assay [4] (setting [14]) it was < 50%; in assay [5] (setting [15]) it was > 50%; in assay [6] (setting [17]), > 50%; in assay [7] (setting [19]) it was > 50%.
Turning to `c1ccc(CCNc2nccc(-c3c[nH]c4ncc(-c5cccnc5)cc34)n2)cc1` [1B15, N-phenethyl-4-(5-(pyridin-3-yl)-1H-pyrrolo[2,3-b]pyridin-3-yl)pyrimidin-2-amine], the inhibition at 0.5 µM in assay [1] (setting [22]), in assay [1] (setting [9]), in assay [2] (setting [23]) and in assay [2] (setting [11]) was > 70% each time. In addition, the inhibition at 10 µM in assay [3] (setting [12]) is > 50%; in assay [3] (setting [13]), > 50%; in assay [4] (setting [14]) it was < 50%; in assay [5] (setting [15]), < 50%; in assay [6] (setting [17]), > 50%; in assay [7] (setting [19]), > 70%. The inhibition at 10 µM in assay [7] (setting [20]) was > 70%.
Regarding `Nc1nccc(-c2c[nH]c3ncc(-c4cccc5ccccc45)cc23)n1` [1C14, 4-(5-(naphthalen-1-yl)-1H-pyrrolo[2,3-b]pyridin-3-yl)pyrimidin-2-amine], the inhibition at 0.5 µM in assay [1] (setting [22]), in assay [1] (setting [9]), in assay [2] (setting [23]) and in assay [2] (setting [11]) was > 70% in each case. The inhibition at 10 µM was > 50% in assay [3] (setting [24]); > 50% in assay [3] (setting [13]); > 70% in assay [4] (setting [25]); > 50% in assay [5] (setting [26]); > 70% in assay [6] (setting [27]); > 50% in assay [7] (setting [28]).
With `FC(F)(F)Oc1ccc(-c2cnc3[nH]cc(-c4ccnc(NC5CCCC5)n4)c3c2)cc1` [1A23, N-cyclopentyl-4-(5-(4-(trifluoromethoxy)phenyl)-1H-pyrrolo[2,3-b]pyridin-3-yl)pyrimidin-2-amine], the inhibition at 0.5 µM in assay [1] (setting [8]) was > 70%; in assay [2] (setting [10]) it was > 50%. Further, the inhibition at 10 µM in assay [3] (setting [12]) was > 50%; in assay [3] (setting [13]) it was > 50%; in assay [4] (setting [14]), > 50%; in assay [5] (setting [15]), < 50%; in assay [6] (setting [17]), > 50%; in assay [7] (setting [19]) it was > 70%. The inhibition at 10 µM in assay [7] (setting [20]) is > 70%.
As for `COc1ccc(-c2cnc3[nH]cc(-c4ccnc(NC5CCCC5)n4)c3c2)cc1` [1A31, N-cyclopentyl-4-(5-(4-methoxyphenyl)-1H-pyrrolo-[2,3-b]pyridin-3-yl)pyrimidin-2-amine], the inhibition at 0.5 µM in assay [1] (setting [8]), in assay [1] (setting [9]), in assay [2] (setting [10]) and in assay [2] (setting [11]) was > 50% each time. Further, the inhibition at 10 µM in assay [3] (setting [12]) was < 50%; in assay [3] (setting [13]) it was < 50%; in assay [4] (setting [14]) it was > 50%; in assay [4] (setting [21]), > 50%; in assay [5] (setting [15]), > 50%; in assay [6] (setting [17]), > 50%. The inhibition at 10 µM in assay [7] (setting [19]) and in assay [7] (setting [20]) was > 70% in each case.
